# Measurements: patent US9918964B2, “Reducing platelet activation, aggregation and platelet-stimulated thrombosis or blood coagulation by reducing mitochondrial respiration” (priority 2010, dated 2018)
# Read-outs that look alike come from different tables or passages of the source.
# Experiments:
# platelets in whole blood = assay: Platelet function testing with the Hemostasis Mechanism Analyzer (HMA): clumping, sticking, clotting in whole blood; format: cell-based, human; settings: for activity in the platelet assays (active agent or inactive): in vitro whole blood assay, clumping, sticking, clotting; for activity at 3300 µg/mL / activity at 6700 µg/mL / activity at 11700 µg/mL / activity at 23300 µg/mL / activity at 700 µg/mL / activity at 1300 µg/mL / activity at 2700 µg/mL / activity at 5300 µg/mL / activity at 10700 µg/mL / activity at 5000 µg/mL: Homo sapiens, Platelet; for activity at 700 µg/mL: Dosage (mg/ml) 0.7; for activity at 1300 µg/mL: Dosage (mg/ml) 1.3; for activity at 2700 µg/mL: Dosage (mg/ml) 2.7; for activity at 5300 µg/mL: Dosage (mg/ml) 5.3; for activity at 10700 µg/mL: Dosage (mg/ml) 10.7
# [1] = system: mitochondria isolated from liver of tilapia (Sarotheridon mossambica); format: biochemical
# [2] = Dosage (mg/ml) 3.3, 0 dosage = 100, read-out: % clot time increase
# [3] = Dosage (mg/ml) 3.3, 0 dosage = 100, read-out: % clump time increase
# [4] = Dosage (mg/ml) 3.3, 0 dosage = 100, read-out: % stick time increase
# [5] = Dosage (mg/ml) 6.7, 0 dosage = 100, read-out: % clot time increase
# [6] = Dosage (mg/ml) 6.7, 0 dosage = 100, read-out: % clump time increase
# [7] = Dosage (mg/ml) 6.7, 0 dosage = 100, read-out: % stick time increase
# [8] = Dosage (mg/ml) 11.7, 0 dosage = 100, read-out: % clot time increase
# [9] = Dosage (mg/ml) 11.7, 0 dosage = 100, read-out: % clump time increase
# [10] = Dosage (mg/ml) 11.7, 0 dosage = 100, read-out: % stick time increase
# [11] = Dosage (mg/ml) 23.3, 0 dosage = 100, read-out: % clot time increase
# [12] = Dosage (mg/ml) 23.3, 0 dosage = 100, read-out: % clump time increase
# [13] = Dosage (mg/ml) 23.3, 0 dosage = 100, read-out: % stick time increase
# [14] = 0 dosage = 100, read-out: % clot time increase
# [15] = 0 dosage = 100, read-out: % clump time increase
# [16] = 0 dosage = 100, read-out: % stick time increase
# [17] = read-out: % clump time increase
# [18] = read-out: % stick time increase
smiles,measurement,setting,value
"C[N+](C)(C)[C@@H](Cc1c[nH]c(=S)[nH]1)C(=O)[O-] [Compound 50, (2S)-3-(2-thioxo-1,3-dihydroimidazol-4-yl)-2-(trimethylammonio) propanoate]",activity in the platelet assays (active agent or inactive),platelets in whole blood,inactive
same,IC50 (mg/ml) mitochondria inhibition,[1],86 mg/mL
"O=C(O)CCCCC1CCSS1 (single isomer, unassigned) [Compound 90, 5-[(3R or 3S)-dithiolan-3-yl]pentanoic acid]",activity at 3300 µg/mL,platelets in whole blood; [2],97%
same,activity at 3300 µg/mL,platelets in whole blood; [3],102%
same,activity at 3300 µg/mL,platelets in whole blood; [4],104%
same,activity at 6700 µg/mL,platelets in whole blood; [5],104%
same,activity at 6700 µg/mL,platelets in whole blood; [6],97%
same,activity at 6700 µg/mL,platelets in whole blood; [7],100%
same,activity at 11700 µg/mL,platelets in whole blood; [8],100%
same,activity at 11700 µg/mL,platelets in whole blood; [9],110%
same,activity at 11700 µg/mL,platelets in whole blood; [10],110%
same,activity at 23300 µg/mL,platelets in whole blood; [11],110%
same,activity at 23300 µg/mL,platelets in whole blood; [12],129%
same,activity at 23300 µg/mL,platelets in whole blood; [13],136%
same,activity in the platelet assays (active agent or inactive),platelets in whole blood,inactive
same,IC50 (mg/ml) mitochondria inhibition,[1],37.1 mg/mL
"C=CCSCC=C [Compound 86, 3-allylsulfanylprop-1-ene]",activity in the platelet assays (active agent or inactive),platelets in whole blood,none of them were active agents
"Cc1cscn1 [Compound 75, 4-methylthiazole]",activity at 700 µg/mL,platelets in whole blood; [14],103%
same,activity at 700 µg/mL,platelets in whole blood; [15],115%
same,activity at 700 µg/mL,platelets in whole blood; [16],106%
same,activity at 1300 µg/mL,platelets in whole blood; [14],106%
same,activity at 1300 µg/mL,platelets in whole blood; [15],109%
same,activity at 1300 µg/mL,platelets in whole blood; [16],102%
same,activity at 2700 µg/mL,platelets in whole blood; [14],108%
same,activity at 2700 µg/mL,platelets in whole blood; [15],126%
same,activity at 2700 µg/mL,platelets in whole blood; [16],123%
same,activity at 5300 µg/mL,platelets in whole blood; [14],114%
same,activity at 5300 µg/mL,platelets in whole blood; [15],136%
same,activity at 5300 µg/mL,platelets in whole blood; [16],132%
same,activity at 10700 µg/mL,platelets in whole blood; [14],122%
same,activity at 10700 µg/mL,platelets in whole blood; [15],164%
same,activity at 10700 µg/mL,platelets in whole blood; [16],155%
same,IC50 (mg/ml) mitochondria inhibition,[1],40.6 mg/mL
"Cn1cncn1 [Compound 8, 1-Methyl-1,2,4-triazole]",activity at 3300 µg/mL,platelets in whole blood; [2],104%
same,activity at 3300 µg/mL,platelets in whole blood; [3],105%
same,activity at 3300 µg/mL,platelets in whole blood; [4],98%
same,activity at 5000 µg/mL,"platelets in whole blood; Dosage (mg/ml) 5, 0 dosage = 100, read-out: % clot time increase",105%
same,activity at 5000 µg/mL,"platelets in whole blood; Dosage (mg/ml) 5, 0 dosage = 100, read-out: % clump time increase",121%
same,activity at 5000 µg/mL,"platelets in whole blood; Dosage (mg/ml) 5, 0 dosage = 100, read-out: % stick time increase",118%
same,activity at 6700 µg/mL,platelets in whole blood; [5],105%
same,activity at 6700 µg/mL,platelets in whole blood; [6],130%
same,activity at 6700 µg/mL,platelets in whole blood; [7],121%
"FC(F)(F)c1ccc(-c2nnn[nH]2)cc1 [Compound 18, 5-[4-(trifluoromethyl)phenyl]-1H-tetrazole]",activity at 6700 µg/mL,platelets in whole blood; [5],106%
same,activity at 6700 µg/mL,platelets in whole blood; [6],127%
same,activity at 6700 µg/mL,platelets in whole blood; [7],106%
"OCc1c[nH]c2ccccc12 [Compound 77, 1H-indol-3-ylmethanol]",activity at 700 µg/mL,platelets in whole blood; [14],102%
same,activity at 700 µg/mL,platelets in whole blood; [15],95%
same,activity at 700 µg/mL,platelets in whole blood; [16],92%
same,activity at 3300 µg/mL,platelets in whole blood; [2],104%
same,activity at 3300 µg/mL,platelets in whole blood; [3],81%
same,activity at 3300 µg/mL,platelets in whole blood; [4],86%
same,activity at 6700 µg/mL,platelets in whole blood; [5],105%
same,activity at 6700 µg/mL,platelets in whole blood; [6],109%
same,activity at 6700 µg/mL,platelets in whole blood; [7],97%
same,activity at 11700 µg/mL,platelets in whole blood; [8],108%
same,activity at 11700 µg/mL,platelets in whole blood; [9],116%
same,activity at 11700 µg/mL,platelets in whole blood; [10],114%
same,activity at 23300 µg/mL,platelets in whole blood; [11],126%
same,activity at 23300 µg/mL,platelets in whole blood; [12],140%
same,activity at 23300 µg/mL,platelets in whole blood; [13],100%
same,activity in the platelet assays (active agent or inactive),platelets in whole blood,met the criteria for active agents
same,IC50 (mg/ml) mitochondria inhibition,[1],82.8 mg/mL
"C1CCc2nnnn2CC1 [Compound 52, 6,7,8,9-tetrahydro-5H-tetrazolo[1,5-a]azepine]",activity at 3300 µg/mL,platelets in whole blood; read-out: % clot time increase,105%
same,activity at 5000 µg/mL,platelets in whole blood; read-out: % clot time increase,112%
same,activity at 6700 µg/mL,platelets in whole blood; read-out: % clot time increase,117%
same,activity at 3300 µg/mL,platelets in whole blood; [17],115%
same,activity at 5000 µg/mL,platelets in whole blood; [17],143%
same,activity at 6700 µg/mL,platelets in whole blood; [17],130%
same,activity at 3300 µg/mL,platelets in whole blood; [18],120%
same,activity at 5000 µg/mL,platelets in whole blood; [18],138%
same,activity at 6700 µg/mL,platelets in whole blood; [18],131%
"Cn1cc[nH]c1=S [Compound 78, 3-methyl-1H-imidazole-2-thione, reference compound]",activity at 6700 µg/mL,platelets in whole blood; read-out: % clot time increase,110%
same,activity at 11700 µg/mL,platelets in whole blood; read-out: % clot time increase,123%
same,activity at 23300 µg/mL,platelets in whole blood; read-out: % clot time increase,156%
same,activity at 6700 µg/mL,platelets in whole blood; [17],124%
same,activity at 11700 µg/mL,platelets in whole blood; [17],132%
same,activity at 23300 µg/mL,platelets in whole blood; [17],216%
same,activity at 6700 µg/mL,platelets in whole blood; [18],101%
same,activity at 11700 µg/mL,platelets in whole blood; [18],118%
same,activity at 23300 µg/mL,platelets in whole blood; [18],203%
same,activity in the platelet assays (active agent or inactive),platelets in whole blood,met the criteria for active agents
"COc1cc(/C=C/C(=O)/C=C(O)/C=C/c2ccc(O)c(OC)c2)ccc1O [Compound 85, (1E,4Z,6E)-5-hydroxy-1,7-bis(4-hydroxy-3-methoxy-phenyl)hepta-1,4,6-trien-3-one]",activity in the platelet assays (active agent or inactive),platelets in whole blood,none of them were active agents
